Like-named read-outs stand apart in the source and are kept apart here.

One series deals with herpesvirus 5. Nature of the series: herpesvirus 5 plaque reduction assay in MRC-5 cell monolayers. The series is classed as cell-based, human herpesvirus 5 (HCMV). The protocol: Compound 1 was isolated from a unique Taiwanese plant (Taiwania cryptomerioides). See, e.g., Chang et al. (2000) Phytochemistry 55: 227. Antiviral drug ganciclovir (i.e., […], GCV) was purchased from Sigma. Both compounds were solubilized in 100% dimethyl sulfoxide (DMSO) at a concentration of 10 mM and stored at −20° C. The compounds were added to cultures such that the resulting concentrations of DMSO never exceed 0.05%, by volume. To reserve the stability of both compounds, Compound 1 and GCV were never stored in cell culture medium and made fresh for each experiment.
Human cell lines, HEL299 (ATCC CCL-137), MRC-5 (ATCC CCL-171), H1299 (CRL-5803), and ARPE19 (CRL-2302) were grown in respective culture media as indicated by the ATCC. All cell lines were screened periodically for mycoplasma contamination. Two HCMV lab strains, AD169 (VR-538) and the Town strain RC256 (the ATCC VR-2356) were purchased from ATCC. All stocks of HCMV were prepared as described in Spaete & Mocarski (1985) J Virol 54(3): 817-24.
The activities of Compound 1 and GCV against herpesvirus 5 were determined by a plaque reduction assay. All herpesvirus 5 plaque reduction assays were performed with monolayer cultures of MRC-5 cells in 6-well cluster dishes (Costar, Cambridge, Mass.). Briefly, one day before the experiment, MRC-5 cells were seeded into 6-well plates at a final concentration of 5×10^6 cells/well. On the day of virus inoculation, cells were treated with each test compound at a desired concentration for one hour before virus inoculation. The serially-diluted virus inoculums containing 10^5 to 10^0 PFU of herpesvirus […] were then added into cell cultures and incubated for additional 2 hours at 37° C. After the incubation, the cells were extensively washed with phosphate buffered saline (PBS) three times and then overlayed with the overlay medium containing 0.3% agar in the absence or presence of the test compounds. The cell cultures were maintained in the 37° C. incubator for two weeks. After removing the overlay agar, the cells were stained with crystal violet.

Series [1] deals with herpesvirus 5 immediate early protein 2 (IE2 protein). Kind of series: expression of herpesvirus 5 IE2 and late proteins in infected HEL299 cells. The series is classed as cell-based. The settings on record: AD169, MOI 1.0, lysates day 0-7 post-infection. The method, then:
Cell-free virus stock, whose titer had been determined by a plaque reduction assay, was used. One day before the experiment, herpesvirus 5-permissive cells were seeded into 6-well plates at a final concentration of 5×10^6 cells/well. On the day of viral infection, the cells were incubated with or without a test compound (Compound 1 or GCV) for one hour. Subsequently, the cells were washed with PBS twice and serum-free medium were added during virus inoculation. The virus inocula were approximately at a multiplicity of infection (MOI) of 0.1 to 1 PFU/cell depending on which cell line was used. After two hours of incubation with viruses, cells were washed with PBS to remove unbound viruses. The cells were maintained at fresh media with or without test compounds at 37° C. with 5% CO2 incubator. The cell lysate samples were collected on day 0, 1, 3, 5, and 7 after virus infection.
More specifically, HEL299 cells were infected with herpesvirus 5 lab strain AD169 at an MOI of 1.0. Cell lysates were then collected after 2 hours of virus absorption on day 0, 1, 3, 5, and 7 post-infection. IE2 protein in virally infected cells was expressed rapidly on day 1 and increased dramatically on day 5. The expression of herpesvirus 5 late proteins was also detected on days 5 and 7 post-infection.

In series [2] the test system is herpesvirus 5 ie and pp150 transcripts. Kind of series: reverse transcription (RT) assay of ie and pp150 transcripts in infected HEL299 cells. The settings on record: AD169, MOI 1.0, total RNA day 0-7 post-infection. The series is classed as cell-based, herpesvirus 5 lab strain AD169. The method, then:
To determine whether the absence of IE2 protein expression was due to Compound 1-induced abrogation at the transcriptional level, a reverse transcription (RT) assay was performed to measure the IE2 mRNA in the absence or presence of Compound 1. Basically, HEL299 cells were infected with herpesvirus 5 lab strain AD169 at a MOI of 1.0. Total RNAs were then extracted, collected after 2 hours of virus absorption on day 0, 1, 3, 5, and 7 post-infection. The expression of immediate early (ie) and late (pp150) gene products were determined by amplifying segments spanning at a common region shared by ie genes 1 and 2, and the 5′ end of pp150. As an internal control, a segment spanning β-actin was also amplified. […] The expression of pp150 transcripts was also detected after day 3.

Series [3] in a line: cytotoxic effect by MTS assay. Conditions: human, read-out: LC50 value (i.e., half lethal concentration). The series is classed as cell-based. The method, then: The cytotoxic effect was also determined using the MTS (3-(4,5-dimethylthiazol-2-yl)-5-(3-carboxymethoxyphenyl)-2-(4-sulfophenyl)-2H-tetrazolium, inner salt) assay method described in Goodwin et al. (1995, J. Immunol. Methods. 179: 95).

As to `Nc1nc2c(ncn2COC(CO)CO)c(=O)[nH]1` [GCV, 2-amino-1,9-dihydro-9-[(2-hydroxy-1-(hydroxymethyl)ethoxy)methyl]-6H-purin-6-one, reference compound], the IC50 in the series with herpesvirus 5 (Human betaherpesvirus 5, MRC5, plaque reduction, MRC-5 cells, herpesvirus 5, read-out: IC50 value (i.e., 50% infectious concentration)) stood at 1 µM.

Regarding `O=C1OCc2c1cc1ccc3c(c1c2-c1ccc2c(c1)OCO2)OCO3` [Compound 1, 10-benzo[1,3]dioxol-5-yl-9H-furo[3′,4′:6,7]naphtho[1,2-d][1,3]dioxol-7-one], the IC50 in the series on herpesvirus 5 (Human betaherpesvirus 5, MRC5, read-out: IC50 value (i.e., 50% infectious concentration)) was below 0.1 µM. Further, the “potency relative to GCV” value with herpesvirus 5 (IC50 compared with that of GCV) is “ten-fold more potent”. Besides, the “SI (selectivity index=LC50/IC50)” value in the series on herpesvirus 5 (LC50 (MTS)/IC50 (plaque reduction)) is given as above 160. For the same compound, the “herpesvirus 5 growth in the presence of compound” value in the series with herpesvirus 5 (plaque reduction, MRC-5 cells) is recorded as “inhibited”. Also, the “detection of IE2 and late viral proteins in infected cells” value in series [1] is “none of these viral proteins was detected”. In addition, the “detection of viral RNA (ie and pp150 transcripts)” value in series [2] is “none of these viral RNA was detected”. Moreover, in series [3], the CC50 was above 16 µM.

(Values after US20040044069A1, “Anti-virus compounds” (priority 2002, published 2004).)
